This note sets out measurements from US11464786B2, “CXCR7 inhibitors for the treatment of cancer” (CHEMOCENTRYX, INC., priority 2018, dated 2022).

Structures are written as SMILES.

Assay [1] has as its system Frs2β (+/+) mice. Kind of assay: DHMEQ treatment in vivo: RelA localization and cytokine transcripts in precancerous mammary tissues. The arrangement: species or system mouse. The note with it: 10 μg/g intraperitoneally once a day for 3 weeks. The source says:
(§1) FIG. 5A-K FRS2β-dependent increase in activation of AKT-NFκB increases the production of IGF1 and CXCL12, promoting tumorigenesis. (A) Schematic of DHMEQ treatment of cultured Frs2β (+/+) precancerous mammary epithelial cells in vitro. (B) Expression levels of Igf1, Cxcl12, and IκBα in Frs2β (+/+) precancerous mammary epithelial cells treated with the indicated concentration of DHMEQ were compared by qPCR. Results are shown as means±SEM. n=4. **p<0.01. (C) Immunoblotting analysis of the indicated proteins in the lysate of Frs2β (+/+) or Frs2β (−/−) precancerous mammary tissues. Actin was used as a loading control. (D) Immunoblotting analysis of cytoplasmic and nuclear expression levels of the indicated proteins (control as a nuclear protein) in the lysate of Frs2β (+/+) or Frs2β (−/−) mammary tissues. PARP1 was used as a representative protein in nucleus. Actin was used as a loading control. (E) Immunoblotting analysis of the indicated proteins in the lysate of Frs2β (+/+) or Frs2β (−/−) mammary tissues. Actin was used as a loading control. (F) Schematic of DHMEQ treatment of Frs2β (+/+) mice in vivo. The mice were intraperitoneally injected with 10 μg/g DHMEQ once a day for 3 weeks. (G) Immunohistochemical staining for Frs2β (+/+) mammary tissues with or without 3-week treatment with 10 μg/g DHMEQ, or Frs2β (−/−) mammary tissues, using antibodies against RelA. Scale bar: 50 ∝μ. (H) Expression levels of Igf1 and Cxcl12 in Frs2β (+/+) mammary tissues, with or without 3-week treatment with 10 μg/g DHMEQ. N.T., not treated. Results are shown as means±SEM. n=4. ***p<0.001 and **p<0.01 (I) Treatment of mice with a CXCR7 inhibitor and/or an IGF1 antibody reduces tumor volume. Frs2β (+/+) tumor sphere cells were inoculated into mammary fat pads of 8-week-old virgin female MMTV-neu (+)/Frs2β (+/+) mice. After 7 days, the mice were intraperitoneally injected with 0.1 μg/g IGF1 antibody (R&D Biosystems) once per week and/or 1 μg/g of AMD3100 (Sigma) one a day and 1.5 μg/g of Compound 1 once a day. […] Tumor volumes (J) and weights (K) were measured in mice treated as in (I). […]

The test system of assay [2] is Frs2β (+/+) precancerous mammary epithelial cells. Kind of assay: qPCR of NFkB target gene expression in cultured precancerous mammary epithelial cells. The format is cell-based, mouse. The note with it: in vitro, dose-dependent.
Text: as §1
(Quantitative PCR measures a nucleic acid by following its amplification.)

Assay [3] concerns Frs2β (+/+) CAFs. Kind of assay: Migration (mobilization) of CAFs in co-culture. The assay is classed as cell-based, mouse. The note with it: single inhibitor alone, 100 μg/ml; data not shown. The method, then: FIG. 4A-I CXCL12 produced from precancerous Frs2β (+/+) mammary cells induce tumor spheres and migration of CAFs. (A) Schematic of co-culture of Frs2β (+/+) tumor cells to form spheres in the lower chamber with Frs2β (+/+) precancerous mammary epithelial cells in the upper chamber. (B) Representative images of tumor sphere formation in the presence of Frs2β (+/+) mammary epithelial cells treated with control IgG (400 nM) or IGF1 neutralizing antibody (Nab) (400 nM). N.T., not treated (without co-culture with mammary epithelial cells). Scale bar: 100 ∝μ. (C) Quantification of tumor sphere-forming efficiency. Results are shown as means±SEM. n=4. ***p<0.001, **p<0.01. (D) Schematic of co-culture of Frs2β (+/+) or Frs2β (−/−) mammary cells in the lower chamber with Frs2β (+/+) or Frs2β (−/−) CAFs in the upper chamber. (E) Expression levels of Cxcl12 was compared between Frs2β (+/+) or Frs2β (−/−) mammary cells on the […] by qPCR. Results were shown as mean±SEM. n=6. * * *p<0.001. (F) Representative images of migrated Frs2β (+/+) CAFs co-cultured with Frs2β (+/+) or Frs2β (−/−) mammary cells in the […] for 24 hours. (G) Quantification of migrated Frs2β (+/+) CAFs. Results were shown as mean±SEM. n=4. **p<0.01. […] (I) Quantification of the migrated CAFs co-cultured with Frs2β (+/+) cancer cells for 24 hr. […]

As to `O=C(NC1=CC(=O)[C@H]2O[C@H]2[C@H]1O)c1ccccc1O` [DHMEQ], in assay [1], the “expression of Cxcl12 transcripts in precancerous mammary tissues” value was “inhibited” and the “expression of Igf1 transcripts in precancerous mammary tissues” value is given as “inhibited”. Besides, the “number of Frs2β (+/+) precancerous luminal cells harboring RelA in the nucleus” value in assay [1] (immunohistochemistry) is given as “dramatically decreased”. For the same molecule, in assay [2], the “expression of Cxcl12” value is recorded as “inhibited”, the “expression of Igf1” value is listed as “inhibited” and the “expression of IkBa” value is reported as “inhibited”.
Regarding `c1cc(CN2CCCNCCNCCCNCC2)ccc1CN1CCCNCCNCCCNCC1` [AMD3100], the “mobilization of CAFs” value in assay [3] is recorded as “did not observe significant effects”.
Turning to `CC(C)c1cc(N2CCCN(Cc3csc(-c4ccccc4)n3)CC2)c2ncccc2c1` [Compound 1], the “mobilization of CAFs” value in assay [3] was “did not observe significant effects”.
